# According to US20220204510A1, “2,3-DIHYDRO-1H-PYRROLIZINE-7-FORMAMIDE DERIVATIVE AND APPLICATION THEREOF” (CHIA TAI TIANQING PHARMACEUTICAL GROUP CO., LTD., priority 2018, published 2022):
# What was measured:
# [1] = Metabolic stability in liver microsomes; type: in vitro ADME; settings: mouse, CD-1 mice liver microsomes; for half-life at 1 μM: 1 μM compound, 0.5 mg/mL; for microsomal CLint at 1 μM: read-out: CLint(mic)
# Description: Experimental objective: to evaluate the metabolic stability of the test compound in CD-1 mice and human liver microsomes
# Experimental procedures: first, the test compound (10 mM) was subjected to a two-step dilution, where the compound was diluted to an intermediate concentration of 100 μM with 100% methanol, and the working solution was diluted to 10 μM with a potassium phosphate buffer; eight 96-well incubation plates were prepared, and named T0, T5, T10, T20, T30, T60, Blank and NCF60, respectively; the reaction time points corresponding to the first 6 incubation plates were 0, 5, 10, 20, 30 and 60 min, respectively; for the Blank plate, neither the test compound nor a control compound was added, and for the NCF60 plate, potassium phosphate buffer was used in an incubation of 60 min in place of a NADPH regeneration system solution; 10 μL of the test compound working solution and 80 μL of the microsome working solution (liver microsome protein concentration was 0.625 mg/mL) were added to the T0, T5, T10, T20, T30, T60 and NCF60 plates, while only the microsome working solution was added to the Blank plate, and all the incubation plates were then placed in a 37° C. water bath for pre-incubation for about 10 min; after the pre-incubation, 10 μL of a NADPH regeneration system working solution was added into each sample well of all the plates except the NCF60 plate and T0 plate to start the reaction, and 10 μL of potassium phosphate buffer was added to each well of the NCF60 plate; therefore, in the test compound or control compound samples, the final reaction concentrations of the compound, testosterone, diclofenac and propafenone were 1 μM, the concentration of the liver microsomes was 0.5 mg/mL, and the final concentrations of DMSO and acetonitrile in the reaction system were 0.01% (v/v) and 0.99% (v/v), respectively; after incubation for an appropriate time (such as 5, 10, 20, 30, and 60 min), 300 μL of a stop solution (acetonitrile solution containing 100 ng/mL tolbutamide and 100 ng/mL labetalol) was added to each sample well to stop the reaction; 300 μL of the stop solution and then 10 μL of the NADPH working solution were added to the T0 plate, all the sample plates were shaken and centrifuged in a centrifuge (3220×g) for 20 min, and then 100 μL of supernatant was taken from each well and diluted with 300 μL of pure water for liquid chromatography-tandem mass spectrometry analysis.
# [2] = test system: hepatitis B virus; assay: In vivo efficacy in the HDI/HBV mouse model; settings: HDI/HBV mice
# Description: Experimental objective: to assay the efficacy of the compound against hepatitis B virus in mice through the HDI/HBV mouse model.
# Preparation of compound: the solvent was an aqueous solution containing 10% polyethylene glycol-15 hydroxystearate; a certain amount of the test compounds 18 and 25 were separately dissolved in an aqueous solution containing 10% polyethylene glycol-15 hydroxystearate, and the mixtures were vortexed and sonicated to prepare uniform suspensions. The suspensions were stored at 4° C. for later use.
# High pressure injection of the HBV plasmid DNA solution via the tail vein of mice: the day of plasmid injection was day 0, the day after injection was day 1, and so on. On day 0, all mice were injected with normal saline containing 10 μg of plasmid DNA via their tail veins at a dose of 8% of body weight, and the injection was completed within 5 s.
# Administration: all mice were administered intragastrically twice a day (8/16 h interval) on day 1-6 and once on day 7. All mice were euthanized in the afternoon on day 7. The body weight of the mice, which was monitored every day, remained stable throughout the experiment.
# Sample collection: blood was collected from the submandibular vein 4 h after the first administration in the morning on days 1, 3, and 5. All blood samples were collected in K2-EDTA anticoagulation tubes, and centrifuged for 10 min at 4° C., 7000 g to prepare about 40 μL of plasma. All mice were euthanized by CO2 four hours after administration in the morning on day 7. Blood was collected from the heart, and the plasma preparation method was the same as above. Two liver tissues were collected with 70-100 mg each, and quick-frozen by liquid nitrogen. After all samples were collected, they were stored in a −80° C. refrigerator for HBV DNA content detection.
# Sample analysis: all plasma samples and liver samples were detected for HBV DNA by qPCR.
# [3] = 30 mg/kg intragastrically twice a day
# [4] = 10 mg/kg intragastrically twice a day
smiles,measurement,setting,value
C[C@]1(NC(=O)C(=O)c2c(Cl)c(C(=O)Nc3ccc(F)c(F)c3)c3n2CCC3)CC[C@H](CC(=O)O)CC1 [Compound 18],CLint scaled at 1 μM,[1],< 38 mL/min/kg
same,half-life at 1 μM,[1],> 2.42 h
same,microsomal CLint at 1 μM,[1],< 9.6 µL/min/mg
same,HBV-DNA reduction Liver (day 7),[2]; [3],1.99 Δ Log10 copies/100 ng
same,HBV-DNA reduction Plasma (day 5),[2]; [3],2.84 Δ Log10 copies/μL
C[C@]1(NC(=O)C(=O)c2c(Cl)c(C(=O)Nc3cc(F)c(F)c(F)c3)c3n2CCC3)CC[C@H](CC(=O)O)CC1 [Compound 25],CLint scaled at 1 μM,[1],< 38 mL/min/kg
same,half-life at 1 μM,[1],> 2.42 h
same,microsomal CLint at 1 μM,[1],< 9.6 µL/min/mg
same,HBV-DNA reduction Liver (day 7),[2]; [4],0.94 Δ Log10 copies/100 ng
same,HBV-DNA reduction Plasma (day 5),[2]; [4],2.0 Δ Log10 copies/μL
same,HBV-DNA reduction Liver (day 7),[2]; [3],2.36 Δ Log10 copies/100 ng
same,HBV-DNA reduction Plasma (day 5),[2]; [3],3.57 Δ Log10 copies/μL
